Here are results for 6 compounds from patent US5948807A (priority 1997, dated 1999).

Where a name gives a salt, the structure may show the parent alone.

Experiment [1] deals with SERT-1, cocaine binding site on the serotonin transporter (Homo sapiens, UniProt P31645). Briefly: biochemical.
The target in experiment [2] is SERT-2, paroxetine binding site on the serotonin transporter (Homo sapiens, UniProt P31645). Briefly: biochemical.
The target in experiment [3] is DAT, dopamine transporter (Homo sapiens, UniProt Q01959). Briefly: radioligand binding, DAT ([^3 H]WIN35,428). To be noted: radioligand [^3 H]WIN35,428; racemic; spiroindanamines as hydrochlorides; read-out: Affinity (IC50) DAT ([^3 H]WIN35,428).
Chain of DAT, dopamine transporter (Q01959 whole entry): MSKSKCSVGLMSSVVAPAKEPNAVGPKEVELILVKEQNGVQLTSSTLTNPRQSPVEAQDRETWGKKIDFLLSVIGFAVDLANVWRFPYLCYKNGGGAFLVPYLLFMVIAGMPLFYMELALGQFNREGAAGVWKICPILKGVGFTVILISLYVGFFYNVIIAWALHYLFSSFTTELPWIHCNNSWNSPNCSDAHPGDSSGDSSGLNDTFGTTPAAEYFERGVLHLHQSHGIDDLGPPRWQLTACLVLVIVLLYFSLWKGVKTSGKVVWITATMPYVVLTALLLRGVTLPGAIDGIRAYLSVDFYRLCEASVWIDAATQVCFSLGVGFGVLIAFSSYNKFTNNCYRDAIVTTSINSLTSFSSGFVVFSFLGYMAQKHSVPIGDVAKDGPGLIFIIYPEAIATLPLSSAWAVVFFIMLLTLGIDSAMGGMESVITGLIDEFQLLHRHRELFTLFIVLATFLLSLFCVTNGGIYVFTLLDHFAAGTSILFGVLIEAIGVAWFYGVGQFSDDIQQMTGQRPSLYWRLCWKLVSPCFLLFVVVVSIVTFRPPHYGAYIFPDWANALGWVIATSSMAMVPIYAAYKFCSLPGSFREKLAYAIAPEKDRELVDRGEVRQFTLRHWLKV
A further experiment addresses mu opioid receptor (Homo sapiens, UniProt P35372). As to the kind of experiment: biochemical. It is filed as binding.
The next experiment deals with kappa opioid receptor (Homo sapiens, UniProt P41145). Briefly: biochemical. It is filed as binding.
Chain of kappa opioid receptor (P41145 whole entry): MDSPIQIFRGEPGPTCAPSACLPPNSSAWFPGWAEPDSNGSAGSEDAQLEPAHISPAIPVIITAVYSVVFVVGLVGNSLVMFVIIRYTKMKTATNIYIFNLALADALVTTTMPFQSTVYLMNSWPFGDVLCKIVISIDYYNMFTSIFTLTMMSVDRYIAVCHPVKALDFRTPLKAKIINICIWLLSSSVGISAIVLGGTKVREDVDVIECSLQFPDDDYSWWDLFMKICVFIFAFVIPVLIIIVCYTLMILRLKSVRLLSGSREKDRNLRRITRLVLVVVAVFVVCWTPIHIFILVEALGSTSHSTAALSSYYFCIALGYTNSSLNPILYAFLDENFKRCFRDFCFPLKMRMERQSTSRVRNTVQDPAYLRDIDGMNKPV
Another experiment has as its system serotonin transporter. As to the kind of experiment: binding at serotonin transporter, comparison with SSRIs. To be noted: vs citalopram, sertraline and fluoxetine.

Chain of mu opioid receptor (P35372 whole entry): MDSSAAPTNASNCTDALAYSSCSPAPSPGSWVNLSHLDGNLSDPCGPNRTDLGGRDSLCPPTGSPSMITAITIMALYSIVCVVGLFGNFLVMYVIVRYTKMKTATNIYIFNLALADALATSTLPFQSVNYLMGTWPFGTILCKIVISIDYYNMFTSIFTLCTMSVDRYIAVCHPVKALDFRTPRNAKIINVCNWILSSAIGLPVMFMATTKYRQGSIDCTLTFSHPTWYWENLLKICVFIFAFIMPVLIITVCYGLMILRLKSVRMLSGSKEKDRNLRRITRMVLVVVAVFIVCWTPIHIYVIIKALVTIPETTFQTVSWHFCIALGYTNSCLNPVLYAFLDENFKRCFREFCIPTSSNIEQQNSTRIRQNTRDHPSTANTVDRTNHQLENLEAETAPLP
Chain of SERT-1, cocaine binding site on the serotonin transporter (P31645 whole entry): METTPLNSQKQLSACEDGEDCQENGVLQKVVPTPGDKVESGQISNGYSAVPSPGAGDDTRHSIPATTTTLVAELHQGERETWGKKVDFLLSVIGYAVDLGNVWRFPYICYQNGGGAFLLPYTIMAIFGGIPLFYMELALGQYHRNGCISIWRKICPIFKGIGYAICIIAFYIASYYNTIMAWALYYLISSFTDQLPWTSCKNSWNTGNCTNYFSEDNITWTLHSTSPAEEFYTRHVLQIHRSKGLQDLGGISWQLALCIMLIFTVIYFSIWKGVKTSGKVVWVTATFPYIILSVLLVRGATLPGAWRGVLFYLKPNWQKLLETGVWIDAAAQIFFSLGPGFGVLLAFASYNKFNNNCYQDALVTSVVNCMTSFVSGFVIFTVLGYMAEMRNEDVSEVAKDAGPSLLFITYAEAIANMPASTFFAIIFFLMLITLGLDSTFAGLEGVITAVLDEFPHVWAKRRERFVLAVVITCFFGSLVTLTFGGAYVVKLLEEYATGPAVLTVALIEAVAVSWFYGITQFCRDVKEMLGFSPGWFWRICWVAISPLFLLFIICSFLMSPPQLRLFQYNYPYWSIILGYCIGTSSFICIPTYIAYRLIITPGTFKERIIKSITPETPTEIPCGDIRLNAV
Chain of SERT-2, paroxetine binding site on the serotonin transporter (P31645 whole entry): as above

In the case of `Oc1ccc2c(c1)C1(CCNC1)CC2c1ccc(Cl)c(Cl)c1` (racemic) [Compound 3d, 3-(3,4-Dichlorophenyl)-6-hydroxyspiro[indan-1,3'-pyrrolidine]], the IC50 in experiment [1] was 0.75 µM; in experiment [2], 0.3 µM; in experiment [3], 0.73 µM; on mu opioid receptor, 2.9 µM; against kappa opioid receptor, 1.52 µM.

Consider `COc1ccc2c(c1)C1(CCNC1)CC2c1ccc(Cl)c(Cl)c1` (racemic) [Compound 3c, 3-(3,4-Dichlorophenyl)-6-methoxyspiro[indan-1,3'-pyrrolidine]], for which the 50% inhibitory concentration (IC50) in experiment [1] came to 0.002 µM; in experiment [2] it was 0.4 µM; in experiment [3], 0.15 µM; on mu opioid receptor, 5 µM; at kappa opioid receptor, 80 µM. In addition, the “affinity for SERT-1 (in words)” value in experiment [1] is recorded as “low nanomolar affinity”. Also, the “affinity at SERT-2 (in words)” value in experiment [2] is on record as “moderate to weak affinity”. Further, the “affinity for the serotonin transporter relative to SSRIs” value with serotonin transporter was “comparable to or higher than that of other specific serotonin re-uptake inhibitors (SSRIs)”.

For `c1ccc(C2CC3(CCN(CC4CC4)C3)c3ccccc32)cc1` (racemic) [Compound 4a, 1'-Cyclopropylmethyl-3-phenylspiro[indan-1,3'-pyrrolidine] hydrochloride], the IC50 in experiment [1] is 2.41 µM; in experiment [2], 2 µM; in experiment [3], 2.9 µM; against mu opioid receptor, 0.98 µM; at kappa opioid receptor, 1 µM.

Turning to `COc1ccc2c(c1)C1(CC(=O)NC1=O)CC2c1ccc(Cl)c(Cl)c1` (racemic) [Compound 1c, 3-(3,4-Dichlorophenyl)-6-methoxyspiro[indan-1,3'-pyrrolidin]-2',5'-dione], the IC50 in experiment [1] was 0.25 µM; in experiment [2] it was more than 100 µM; at mu opioid receptor, 100 µM; against kappa opioid receptor, more than 100 µM. Besides, in experiment [2], the “affinity at SERT-2 (in words)” value is “higher affinity for SERT-2 than the basic spiroindanamines 3d and 4a”.

Consider `O=C1C[C@@]2(C[C@@H](c3ccccc3)c3ccccc32)C(=O)N1` (relative stereo) [Compound 1a, cis-3-Phenylspiro[indan-1,3'-pyrrolidine]-2',5'-dione], for which the IC50 was 26.7 µM in experiment [1], more than 100 µM in experiment [2], 100 µM against mu opioid receptor and more than 100 µM at kappa opioid receptor.

Turning to `c1ccc(C2CC3(CCNC3)c3ccccc32)cc1` (racemic) [Compound 3a, 3-Phenylspiro[indan-1,3'-pyrrolidine]], the IC50 in experiment [1] is 0.01 µM; in experiment [2] it was 2.5 µM; in experiment [3], 0.2 µM; against mu opioid receptor, 0.5 µM; against kappa opioid receptor it was 10 µM. Further, the “affinity for SERT-1 (in words)” value in experiment [1] was “low nanomolar affinity”. Also, the “affinity at SERT-2 (in words)” value in experiment [2] was “moderate to weak affinity”. Also, the “affinity for the serotonin transporter relative to SSRIs” value in the experiment on serotonin transporter was “comparable to or higher than that of other specific serotonin re-uptake inhibitors (SSRIs)”.
